PMC6065317, “Rice Defensin OsAFP1 is a New Drug Candidate against Human Pathogenic Fungi” (Scientific Reports, 2018)
Like-named read-outs stand apart in the source and are kept apart here. Where a SMILES comes first, the peptide text is derived from it. Where no end group is shown, it is not given here.

What was measured:
Candida species = conditions: existing antifungal drugs; cited from earlier work
Procedure: In the present study, functional analyses of the antifungal activity of the rice-derived defensin OsAFP1 were performed. […] Since MIC values of the existing antifungal drugs, such as fluconazole, amphotericin B, and caspofungin, are in the 0.01–1 μM range[48], further engineering to enhance its function may be required before OsAFP1 can be used as a drug. On the other hand, OsAFP1 was extremely stable upon heat and serum treatments and exerted its antifungal activity by inducing apop ...

[1] = system: C. albicans CAI4 (IFM 61937); conditions: for IC50: OD650
Procedure: (§1) Seven microbial strains were used for OsAFP1 antimicrobial activity testing. P. gingivalis ATCC 33277 cells were cultured in modified Gifu anaerobic medium (GAM) (Nissui, Tokyo, Japan) in an anaerobic jar (Mitsubishi Gas Chemical, Tokyo, Japan) in the presence of a deoxygenating regent (AnaeroPack, Mitsubishi Gas Chemical) for 48 h at 37 °C. E. coli K-12 NBRC3301, S. mutans JCM 5705, S. aureus NBRC 12732, and P. acnes JCM 6473 cells were cultured in Luria-Bertani (LB) broth, brain-heart infusion broth (Nissui), trypticase soy broth (BD Biosciences, Franklin Lakes, NJ, USA), and GAM broth (Nissui), respectively, under facultative anaerobic conditions for 4–24 h at 37 °C. C. albicans CAI4 (IFM 61937) cells were cultured in 0.5 × potato dextrose broth (PDB) supplemented with 25 μg/ml of uridine under facultative anaerobic conditions for 14 h at 30 °C. S. cerevisiae BY4742 and S288C cells were cultured in 0.5 × PDB supplemented with 30 μg/ml of uridine, histidine, and lysine and 60 μg/ml of leucine under facultative anaerobic conditions for 14 h at 27 °C. These microbial strains were purchased from the American Type Culture Collection (Manassas, VA, USA), National Institute of Technology and Evaluation (Tokyo, Japan), RIKEN BioResource Center (Tsukuba, Japan), Medical Mycology Research Center (Chiba, Japan), and GE Healthcare (Little Chalfont, UK).
Antifungal assays to determine the MIC of OsAFP1 were performed as follows. Fungal cells (1 × 10^5 cells) were suspended in 100 μl of the appropriate medium containing 0–32 μM OsAFP1 in 96-well Costar cell culture plates. After incubation, OD650 was measured using a plate reader. […] In those cases, the cultures were plated on agar plates (0.5 × PDB), and the peptide concentration at which viable cell numbers were 1% or less than that in the control culture was considered the MIC. GraphPad Prism version 6.00 for Macintosh (GraphPad Software, La Jolla, CA, USA) was used to calculate IC50 values. Experiments were independently repeated at least three times. Detailed growth conditions for each fungus are provided in the “Microorganisms and culture conditions” section above.

C. albicans CAI4 = test: Thermal stability (MIC of heat-treated peptide); assay type: cell-based, Candida albicans; conditions: peptide heated at 100 °C for 10 min, 0–8 μM, OD650, n = 3
Procedure: Antifungal assays to determine the MIC of OsAFP1 were performed as follows. Fungal cells (1 × 10^5 cells) were suspended in 100 μl of the appropriate medium containing 0–32 μM OsAFP1 in 96-well Costar cell culture plates. After incubation, OD650 was measured using a plate reader. […] In some measurements, because of aggregation of medium components, it was difficult to determine MIC values. In those cases, the cultures were plated on agar plates (0.5 × PDB), and the peptide concentration at which viable cell numbers were 1% or less than that in the control culture was considered the MIC. GraphPad Prism version 6.00 for Macintosh (GraphPad Software, La Jolla, CA, USA) was used to calculate IC50 values. Experiments were independently repeated at least three times. Detailed growth conditions for each fungus are provided in the “Microorganisms and culture conditions” section above.
Thermal stability of OsAFP1 was evaluated by comparing the MIC of heat-treated (10 min at 100 °C) peptide to the MIC of untreated peptide.

C. albicans CAI4 cells [2] = test: Fungicidal assay (CFU time course); assay type: cell-based, Candida albicans; conditions: 16 μM (4 × MIC), 30 °C, CFU count, n = 3
Procedure: C. albicans CAI4 cells (2 × 10^5 cells/ml) were treated with OsAFP1 and incubated at 30 °C for 0, 0.17, 0.5, 1, 2, and 4 h. After being washed three times with KPB, the cells were plated on agar plates (0.5 × PDB). Calculated CFUs in the plate were used as indicators of viable cells. […] Therefore, in the present assay, 4 × MIC concentration was used, because long-term OsAFP1 treatment may produce various undesirable effects other than fungicidal activity and make the assay difficult to interpret. 4 × MIC concentration was also applied in the subsequent annexin V assay and ICC staining analysis.

[3] = system: C. albicans CAI4 cytoplasmic membrane; test: PI uptake assay (flow cytometry); assay type: cell-based, Candida albicans; conditions: 4 × IC50 (6 μM melittin, 8 μM OsAFP1, 20 or 24 μM peptide 1, 40 μM peptide 7), 30 °C, 3 h, PI 5 μg/ml, PBS control 0.1 %
Procedure: C. albicans CAI4 cells (2 × 10^5 cells/ml) were treated with OsAFP1, peptide 1, peptide 7, or melittin at 4 × IC50 concentrations (8 μM for OsAFP1, 24 μM for peptide 1, 40 μM for peptide 7, and 6 μM for melittin[52],[53]) and incubated at 30 °C for 3 h. After the addition of PI (5 μg/ml) and incubation at room temperature in the dark for 30 min, the cells were analysed using a flow cytometer equipped with a 488 nm air-cooled argon laser. At least 10,000 events per sample were recorded. As a negative control, PBS was used instead of antifungal agents, and the mixtures were treated in the same way.

Escherichia coli K-12 = test: Antibacterial assay (BacTiter-Glo ATP luminescence); assay type: cell-based; conditions: E. coli K-12; LB broth, 37 °C; 0–32 μM; MIC = >99% reduction of ATP luminescence
Procedure: as §1
(§2) Recombinant OsAFP1 and its mutants used in this study were prepared as described in “Supplementary Information”. Antibacterial assays to determine the MIC of OsAFP1 were performed using a modified BacTiter-Glo Luminescent cell viability assay kit (Promega, Madison, WI, USA). This assay quantifies ATP in bacterial cultures to determine the number of live cells. All procedures were performed following the manufacturer’s instructions. Briefly, bacterial cells (1 × 10^4 cells/ml) were cultured in 100 μl of the appropriate medium (as specified in the “Microorganisms and culture conditions” section) in the presence of 0–32 μM OsAFP1 in 96-well Costar cell culture plates. After appropriate incubation for 4–40 h, 10 μl of Lucifell ATP-eliminating reagent (Kikkoman, Chiba, Japan) was added to each well to reduce medium-derived ATP and mixed for 10 min using an orbital shaker. The cell culture (50 μl) was mixed gently with BacTiter-Glo reagent (50 μl) in a well of white Optiplate-96 plates. After incubation for 15 s, luminescence at 560 nm was measured using a plate reader. MIC was defined as the minimum concentration of OsAFP1 that reduced the sample ATP luminescence by >99% compared with that of the control culture. Experiments were independently repeated at least three times.

[4] = system: Streptococcus mutans JCM 5705; test: as above; assay type: cell-based; conditions: S. mutans JCM 5705; brain-heart infusion broth, 37 °C; 0–32 μM; MIC = >99% reduction of ATP luminescence
Procedure: as §1, §2

[5] = system: Propionibacterium acnes JCM 6473; test: as above; assay type: cell-based; conditions: P. acnes JCM 6473; GAM broth, 37 °C; 0–32 μM; MIC = >99% reduction of ATP luminescence
Procedure: as §1, §2

[6] = system: Staphylococcus aureus subsp. aureus NBRC 12732; test: as above; assay type: cell-based; conditions: S. aureus NBRC 12732; trypticase soy broth, 37 °C; 0–32 μM; MIC = >99% reduction of ATP luminescence
Procedure: as §1, §2

[7] = system: Porphyromonas gingivalis ATCC 33277; test: as above; assay type: cell-based; conditions: P. gingivalis ATCC 33277; modified GAM, anaerobic, 37 °C; 0–32 μM; MIC = >99% reduction of ATP luminescence
Procedure: as §1, §2

C. albicans CAI4 cells [8] = test: Annexin V assay (apoptosis, epifluorescence microscopy); assay type: cell-based, Candida albicans; conditions: 16 μM (4 × MIC), 30 °C, 0.5 h; epifluorescence microscope
Procedure: After being washed three times with KPB, the cells were resuspended in 500 μl of 1 × binding buffer and mixed with 5 μl each of annexin V-FITC and PI reagent (BioVision, Mountain View, CA, USA). The mixtures were incubated at room temperature in the dark for 5 min, and the cells were then observed under a TE2000-S epifluorescence microscope (Nikon, Tokyo, Japan) equipped with an appropriate objective lens [CFI Plan Fluor 100 × oil (Nikon)] and bandpass filters with 542 nm excitation and 620 nm emission for PI and 494 nm excitation and 518 nm emission for FITC.

[9] = system: Saccharomyces cerevisiae BY4742; test: Antifungal assay (growth inhibition, OD650); assay type: cell-based; conditions: S. cerevisiae BY4742; 0.5 × PDB with supplements, 27 °C, 14 h; MIC = >99% reduction of OD650
Procedure: as §1, with “These microbial strains were purchased from the American Type Culture Collection (Manassas, VA, USA), National Institute of Technology and Evaluation (Tokyo, Japan), RIKEN BioResource Center (Tsukuba, Japan), Medical Mycology Research Center (Chiba, Japan), and GE Healthcare (Little Chalfont, UK).” left out
(§3) Antifungal assays to determine the MIC of OsAFP1 were performed as follows. […] After incubation, OD650 was measured using a plate reader. […]

[10] = system: Saccharomyces cerevisiae S288C; test: Antifungal assay (growth inhibition, OD650); assay type: cell-based; conditions: S. cerevisiae S288C; 0.5 × PDB with supplements, 27 °C, 14 h; MIC = >99% reduction of OD650
Procedure: as §1, with “These microbial strains were purchased from the American Type Culture Collection (Manassas, VA, USA), National Institute of Technology and Evaluation (Tokyo, Japan), RIKEN BioResource Center (Tsukuba, Japan), Medical Mycology Research Center (Chiba, Japan), and GE Healthcare (Little Chalfont, UK).” left out
as §3

[11] = Table 2, synthetic partial peptides against C. albicans, tested up to 25 μM

C[C@@H]1[C@H](O)[C@@H](C)/C=C/C=C/C=C/C=C/C=C/C=C/C=C/[C@H](O[C@@H]2O[C@H](C)[C@@H](O)[C@H](N)[C@@H]2O)C[C@@H]2O[C@](O)(C[C@@H](O)C[C@@H](O)[C@H](O)CC[C@@H](O)C[C@@H](O)CC(=O)O[C@H]1C)C[C@H](O)[C@H]2C(=O)O [amphotericin B]
MIC values (Candida species): 0.01 to 1 µM

CSCC[C@H](NC(=O)CNC(=O)[C@H](CCCCN)NC(=O)[C@H](Cc1ccccc1)NC(=O)[C@H](CCCNC(=N)N)NC(=O)[C@H](Cc1c[nH]cn1)NC(=O)[C@@H](N)CO)C(=O)N[C@@H](CS)C(=O)N[C@H](C(=O)N[C@@H](CO)C(=O)O)C(C)C [compound 2] (H-SHRFKGMCVS-OH)
IC50 [1, 11]: 19 µM

CC(C)[C@H](N)C(=O)N[C@@H](CO)C(=O)N[C@@H](CO)C(=O)N[C@@H](CC(N)=O)C(=O)N[C@@H](CC(N)=O)C(=O)N[C@@H](CS)C(=O)N[C@@H](C)C(=O)N[C@@H](CC(N)=O)C(=O)N[C@H](C(=O)O)C(C)C [compound 3] (H-VSSNNCANV-OH)
IC50 [1, 11]: > 25 µM

C[C@@H](O)[C@H](NC(=O)[C@@H](N)CCCNC(=N)N)C(=O)N[C@@H](CCC(=O)O)C(=O)N[C@@H](CO)C(=O)N[C@@H](Cc1ccccc1)C(=O)N1CCC[C@H]1C(=O)N[C@@H](CC(=O)O)C(=O)NCC(=O)N[C@@H](CCC(=O)O)C(=O)O [compound 5] (H-RTESFPDGE-OH)
IC50 [1, 11]: > 25 µM

NCCCC[C@H](NC(=O)[C@H](CS)NC(=O)[C@H](CCC(=O)O)NC(=O)CNC(=O)[C@H](CC(=O)O)NC(=O)[C@@H]1CCCN1C(=O)[C@@H](N)Cc1ccccc1)C(=O)N[C@@H](CO)C(=O)N[C@@H](Cc1c[nH]cn1)C(=O)NCC(=O)O [compound 6] (H-FPDGECKSHG-OH)
IC50 [1, 11]: > 25 µM

OC(Cn1cncn1)(Cn1cncn1)c1ccc(F)cc1F [fluconazole]
MIC values (Candida species): 0.01 to 1 µM

CC(C)C[C@H](NC(=O)[C@H](CS)NC(=O)[C@H](Cc1c[nH]cn1)NC(=O)[C@@H](N)CCCNC(=N)N)C(=O)N[C@@H](CO)C(=O)N[C@@H](CCC(N)=O)C(=O)N[C@@H](CO)C(=O)N[C@@H](Cc1c[nH]cn1)C(=O)N[C@@H](CCCNC(=N)N)C(=O)N[C@@H](Cc1ccccc1)C(=O)O [peptide 1] (H-RHCLSQSHRF-OH)
IC50 [1, 11]: 6 µM

CC(C)C[C@H](NC(=O)CNC(=O)[C@H](Cc1c[nH]cn1)NC(=O)[C@H](CO)NC(=O)[C@@H](N)CCCCN)C(=O)N[C@@H](CCC(=O)O)C(=O)N[C@@H](CCCNC(=N)N)C(=O)N[C@@H](CCCCN)C(=O)N[C@@H](CS)C(=O)N[C@@H](Cc1ccccc1)C(=O)O [peptide 7] (H-KSHGLERKCF-OH)
IC50 [1, 11]: 10 µM

OsAFP1: rice defensin (Os02g41904, UniProtKB Q6K209); recombinant mature peptide produced in E. coli, four disulphide bonds (RHCLSQSHRFKGMCVSSNNCANVCRTESFPDGECKSHGLERKCFCKKVC; disulfide (positions not given here); UniProt Q6K209 32-80, looked up)
MIC of heat-treated peptide (C. albicans CAI4): 8 µM | C. albicans cells died (C. albicans CAI4 cells [2]; 30 min): about 50% | C. albicans cells died (C. albicans CAI4 cells [2]; 4 h): almost all cells died | MIC ([1]; C. albicans CAI4, 1 × 10^5 cells in 100 μl 0.5 × PDB + 25 μg/ml uridine, 30 °C, 14 h, 0–32 μM, MIC = >99% reduction of OD650, repeated at least three times): 4 µM | IC50 ([1]; read-out: half maximal inhibitory concentration (IC50), C. albicans CAI4 growth, GraphPad Prism, wild-type OsAFP1 (Fig. 1a)): 2 µM | cells stained with PI [3]: 3.6% | MIC (Escherichia coli K-12): >32 µM | MIC [4]: >32 µM | MIC [5]: >32 µM | MIC [6]: >32 µM | MIC [7]: >32 µM | annexin V-FITC fluorescence (early apoptosis) (C. albicans CAI4 cells [8]): almost all fungal cells emitted fluorescence | MIC [9]: 4 µM | MIC [10]: 16 µM

caspofungin
MIC values (Candida species): 0.01 to 1 µM
